In patent publication US10131652B2, “Pyrimidinyloxy benzene derivatives as herbicides” (E. I. DU PONT DE NEMOURS AND COMPANY, priority 2014, dated 2018):

Experiments:
Experiment in all cases: Test F pre-/postemergence plant response
Format in all cases: in vivo
Details in all cases: scale 0 to 100
[1] = system: dayflower (Virginia (VA) dayflower, Commelina virginica)
How it was run: (§1)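 Visual rating versus untreated controls, 0–100 scale (0 = no effect, 100 = complete control), taken 14–21 d after treatment in greenhouse. Pre: seeds planted in silt loam, soil treated. Post: plants 2–18 cm, 1–4 leaves. Compound formulated in non-phytotoxic solvent plus surfactant.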

[2] = system: large (Lg) crabgrass (Digitaria sanguinalis)
How it was run: as §1

[3] = system: yellow nutsedge (Cyperus esculentus)
How it was run: as §1

[4] = system: morningglory (Ipomoea coccinea)
How it was run: as §1

[5] = system: ragweed (common ragweed, Ambrosia elatior)
How it was run: as §1

[6] = system: sandbur (southern sandbur, Cenchrus echinatus)
How it was run: as §1

[7] = system: nightshade (eastern black nightshade, Solanum ptycanthum)
How it was run: as §1

[8] = system: Italian ryegrass (Lolium multiflorum)
How it was run: as §1

[9] = system: Brazilian crabgrass (Digitaria horizontalis)
How it was run: as §1

[10] = system: johnsongrass (Sorghum halepense)
How it was run: as §1

[11] = system: lambsquarters (Chenopodium album)
How it was run: as §1

[12] = system: hairy beggarticks (Bidens pilosa)
How it was run: as §1

[13] = system: wild poinsettia (Euphorbia heterophylla)
How it was run: as §1

[14] = system: barnyardgrass (Echinochloa crus-galli)
How it was run: as §1

[15] = system: waterhemp (common waterhemp, Amaranthus rudis)
How it was run: as §1

[16] = system: green foxtail (Setaria viridis)
How it was run: as §1

For `Cc1cc(-c2ccccc2Oc2ncc(Cl)cn2)on1` [Compound 58], the “Plant response rating, Dayflower, VA” value ([1]; 8 g ai/ha Postemergence) was 5, the “Plant response rating, Dayflower, VA” value ([1]; 8 g ai/ha Preemergence) was 0 and the “Plant response rating, Dayflower, VA” value ([1]; 16 g ai/ha Postemergence) was 5. The “Plant response rating, Dayflower, VA” value ([1]; 16 g ai/ha Preemergence) was 0, the “Plant response rating, Dayflower, VA” value ([1]; 31 g ai/ha Postemergence) was 10 and the “Plant response rating, Dayflower, VA” value ([1]; 31 g ai/ha Preemergence) was 0. The “Plant response rating, Dayflower, VA” value ([1]; 62 g ai/ha Postemergence) was 20, the “Plant response rating, Dayflower, VA” value ([1]; 125 g ai/ha Postemergence) was 10 and the “Plant response rating, Dayflower, VA” value ([1]; 125 g ai/ha Preemergence) was 80. The “Plant response rating, Crabgrass, Large” value ([2]; 8 g ai/ha Preemergence) was 0, the “Plant response rating, Crabgrass, Large” value ([2]; 16 g ai/ha Preemergence) was 20 and the “Plant response rating, Crabgrass, Large” value ([2]; 31 g ai/ha Preemergence) was 50. For the same molecule, the “Plant response rating, Crabgrass, Large” value ([2]; 62 g ai/ha Preemergence) was 65, the “Plant response rating, Crabgrass, Large” value ([2]; 125 g ai/ha Preemergence) was 80 and the “Plant response rating, Nutsedge, Yellow” value ([3]; 8 g ai/ha Preemergence) was 0. The “Plant response rating, Nutsedge, Yellow” value ([3]; 16 g ai/ha Preemergence) was 0, the “Plant response rating, Nutsedge, Yellow” value ([3]; 31 g ai/ha Preemergence) was 0 and the “Plant response rating, Nutsedge, Yellow” value ([3]; 125 g ai/ha Preemergence) was 0. The “Plant response rating, Nutsedge, Yellow” value ([3]; Preemergence) was 0, the “Plant response rating, Morningglory” value ([4]; 8 g ai/ha Preemergence) was 0 and the “Plant response rating, Morningglory” value ([4]; 16 g ai/ha Preemergence) was 0. For the same molecule, the “Plant response rating, Morningglory” value ([4]; 31 g ai/ha Preemergence) was 10, the “Plant response rating, Morningglory” value ([4]; 125 g ai/ha Preemergence) was 10 and the “Plant response rating, Morningglory” value ([4]; Preemergence) was 10. The “Plant response rating, Ragweed” value ([5]; 8 g ai/ha Preemergence) was 0, the “Plant response rating, Ragweed” value ([5]; 16 g ai/ha Preemergence) was 0 and the “Plant response rating, Ragweed” value ([5]; 31 g ai/ha Preemergence) was 0. The “Plant response rating, Ragweed” value ([5]; 125 g ai/ha Preemergence) was 75, the “Plant response rating, Ragweed” value ([5]; Preemergence) was 25 and the “Plant response rating, Sandbur” value ([6]; 8 g ai/ha Postemergence) was 0. For the same molecule, the “Plant response rating, Sandbur” value ([6]; 8 g ai/ha Preemergence) was 0, the “Plant response rating, Sandbur” value ([6]; 16 g ai/ha Postemergence) was 0 and the “Plant response rating, Sandbur” value ([6]; 16 g ai/ha Preemergence) was 0. The “Plant response rating, Sandbur” value ([6]; 31 g ai/ha Postemergence) was 0, the “Plant response rating, Sandbur” value ([6]; 31 g ai/ha Preemergence) was 0 and the “Plant response rating, Sandbur” value ([6]; 62 g ai/ha Postemergence) was 0. The “Plant response rating, Sandbur” value ([6]; 125 g ai/ha Postemergence) was 10, the “Plant response rating, Sandbur” value ([6]; 125 g ai/ha Preemergence) was 0 and the “Plant response rating, Sandbur” value ([6]; Preemergence) was 0. The “Plant response rating, Nightshade” value ([7]; 8 g ai/ha Preemergence) was 0, the “Plant response rating, Nightshade” value ([7]; 16 g ai/ha Preemergence) was 65 and the “Plant response rating, Nightshade” value ([7]; 31 g ai/ha Preemergence) was 80. For the same molecule, the “Plant response rating, Nightshade” value ([7]; 125 g ai/ha Preemergence) was 98, the “Plant response rating, Nightshade” value ([7]; Preemergence) was 90 and the “Plant response rating, Ryegrass, Italian” value ([8]; 8 g ai/ha Postemergence) was 0. The “Plant response rating, Ryegrass, Italian” value ([8]; 8 g ai/ha Preemergence) was 0, the “Plant response rating, Ryegrass, Italian” value ([8]; 16 g ai/ha Postemergence) was 0 and the “Plant response rating, Ryegrass, Italian” value ([8]; 16 g ai/ha Preemergence) was 0. For the same molecule, the “Plant response rating, Ryegrass, Italian” value ([8]; 31 g ai/ha Postemergence) was 0, the “Plant response rating, Ryegrass, Italian” value ([8]; 31 g ai/ha Preemergence) was 0 and the “Plant response rating, Ryegrass, Italian” value ([8]; 62 g ai/ha Postemergence) was 0. The “Plant response rating, Ryegrass, Italian” value ([8]; 125 g ai/ha Postemergence) was 0, the “Plant response rating, Ryegrass, Italian” value ([8]; 125 g ai/ha Preemergence) was 0 and the “Plant response rating, Ryegrass, Italian” value ([8]; Preemergence) was 0. For the same molecule, the “Plant response rating, Crabgrass, Brazil” value ([9]; 8 g ai/ha Postemergence) was 5, the “Plant response rating, Crabgrass, Brazil” value ([9]; 8 g ai/ha Preemergence) was 0 and the “Plant response rating, Crabgrass, Brazil” value ([9]; 16 g ai/ha Postemergence) was 5. For the same molecule, the “Plant response rating, Crabgrass, Brazil” value ([9]; 16 g ai/ha Preemergence) was 0, the “Plant response rating, Crabgrass, Brazil” value ([9]; 31 g ai/ha Postemergence) was 5 and the “Plant response rating, Crabgrass, Brazil” value ([9]; 31 g ai/ha Preemergence) was 0. The “Plant response rating, Crabgrass, Brazil” value ([9]; 62 g ai/ha Postemergence) was 10, the “Plant response rating, Crabgrass, Brazil” value ([9]; 62 g ai/ha Preemergence) was 35 and the “Plant response rating, Crabgrass, Brazil” value ([9]; 125 g ai/ha Postemergence) was 10. For the same molecule, the “Plant response rating, Crabgrass, Brazil” value ([9]; 125 g ai/ha Preemergence) was 75, the “Plant response rating, Johnsongrass” value ([10]; 8 g ai/ha Preemergence) was 0 and the “Plant response rating, Johnsongrass” value ([10]; 16 g ai/ha Preemergence) was 0. For the same molecule, the “Plant response rating, Johnsongrass” value ([10]; 31 g ai/ha Preemergence) was 0, the “Plant response rating, Johnsongrass” value ([10]; 125 g ai/ha Preemergence) was 20 and the “Plant response rating, Johnsongrass” value ([10]; Preemergence) was 0. For the same molecule, the “Plant response rating, Lambsquarters” value ([11]; 16 g ai/ha Preemergence) was 0, the “Plant response rating, Lambsquarters” value ([11]; 31 g ai/ha Preemergence) was 65 and the “Plant response rating, Lambsquarters” value ([11]; 125 g ai/ha Preemergence) was 100. For the same molecule, the “Plant response rating, Lambsquarters” value ([11]; Preemergence) was 90, the “Plant response rating, Beggarticks” value ([12]; 8 g ai/ha Postemergence) was 40 and the “Plant response rating, Beggarticks” value ([12]; 8 g ai/ha Preemergence) was 0. For the same molecule, the “Plant response rating, Beggarticks” value ([12]; 16 g ai/ha Postemergence) was 40, the “Plant response rating, Beggarticks” value ([12]; 16 g ai/ha Preemergence) was 0 and the “Plant response rating, Beggarticks” value ([12]; 31 g ai/ha Postemergence) was 50. For the same molecule, the “Plant response rating, Beggarticks” value ([12]; 31 g ai/ha Preemergence) was 0, the “Plant response rating, Beggarticks” value ([12]; 62 g ai/ha Postemergence) was 50 and the “Plant response rating, Beggarticks” value ([12]; 62 g ai/ha Preemergence) was 10. The “Plant response rating, Beggarticks” value ([12]; 125 g ai/ha Postemergence) was 65, the “Plant response rating, Beggarticks” value ([12]; 125 g ai/ha Preemergence) was 20 and the “Plant response rating, Poinsettia, Wild” value ([13]; 8 g ai/ha Postemergence) was 30. The “Plant response rating, Poinsettia, Wild” value ([13]; 8 g ai/ha Preemergence) was 0, the “Plant response rating, Poinsettia, Wild” value ([13]; 16 g ai/ha Postemergence) was 30 and the “Plant response rating, Poinsettia, Wild” value ([13]; 16 g ai/ha Preemergence) was 0. For the same molecule, the “Plant response rating, Poinsettia, Wild” value ([13]; 31 g ai/ha Postemergence) was 60, the “Plant response rating, Poinsettia, Wild” value ([13]; 31 g ai/ha Preemergence) was 20 and the “Plant response rating, Poinsettia, Wild” value ([13]; 62 g ai/ha Postemergence) was 50. The “Plant response rating, Poinsettia, Wild” value ([13]; 125 g ai/ha Postemergence) was 60, the “Plant response rating, Poinsettia, Wild” value ([13]; 125 g ai/ha Preemergence) was 20 and the “Plant response rating, Poinsettia, Wild” value ([13]; Preemergence) was 20. The “Plant response rating, Barnyardgrass” value ([14]; 8 g ai/ha Postemergence) was 0, the “Plant response rating, Barnyardgrass” value ([14]; 8 g ai/ha Preemergence) was 0 and the “Plant response rating, Barnyardgrass” value ([14]; 16 g ai/ha Postemergence) was 0. For the same molecule, the “Plant response rating, Barnyardgrass” value ([14]; 16 g ai/ha Preemergence) was 0, the “Plant response rating, Barnyardgrass” value ([14]; 31 g ai/ha Postemergence) was 0 and the “Plant response rating, Barnyardgrass” value ([14]; 31 g ai/ha Preemergence) was 0. For the same molecule, the “Plant response rating, Barnyardgrass” value ([14]; 62 g ai/ha Postemergence) was 0, the “Plant response rating, Barnyardgrass” value ([14]; 62 g ai/ha Preemergence) was 0 and the “Plant response rating, Barnyardgrass” value ([14]; 125 g ai/ha Postemergence) was 5. For the same molecule, the “Plant response rating, Barnyardgrass” value ([14]; 125 g ai/ha Preemergence) was 15, the “Plant response rating, Waterhemp” value ([15]; 8 g ai/ha Postemergence) was 65 and the “Plant response rating, Waterhemp” value ([15]; 8 g ai/ha Preemergence) was 20. For the same molecule, the “Plant response rating, Waterhemp” value ([15]; 16 g ai/ha Postemergence) was 60, the “Plant response rating, Waterhemp” value ([15]; 16 g ai/ha Preemergence) was 75 and the “Plant response rating, Waterhemp” value ([15]; 31 g ai/ha Postemergence) was 65. The “Plant response rating, Waterhemp” value ([15]; 31 g ai/ha Preemergence) was 75, the “Plant response rating, Waterhemp” value ([15]; 62 g ai/ha Postemergence) was 80 and the “Plant response rating, Waterhemp” value ([15]; 125 g ai/ha Postemergence) was 90. For the same molecule, the “Plant response rating, Waterhemp” value ([15]; 125 g ai/ha Preemergence) was 100, the “Plant response rating, Waterhemp” value ([15]; Preemergence) was 90 and the “Plant response rating, Foxtail, Green” value ([16]; 8 g ai/ha Preemergence) was 0. For the same molecule, the “Plant response rating, Foxtail, Green” value ([16]; 16 g ai/ha Preemergence) was 0, the “Plant response rating, Foxtail, Green” value ([16]; 31 g ai/ha Preemergence) was 0 and the “Plant response rating, Foxtail, Green” value ([16]; 125 g ai/ha Preemergence) was 25. The “Plant response rating, Foxtail, Green” value ([16]; Preemergence) was 0.
